Molecules are shown by their SMILES.

`OCc1ccnc(Nc2ncc(-c3ccccc3)s2)c1`: the melting point (in general, the temperature of the solid-liquid transition) fell in the range of 236 to 237 °C. Consider `CC(C)NC(=NC(=O)OCc1ccccc1)N=C1NC(=O)C(=O)N1c1ccc(Cl)c(Cl)c1`, for which the melting point came out at 211 °C. With `COC(=O)NCCOC(=O)C(C)Oc1ccc(Oc2cnc3cc(Cl)ccc3n2)cc1` (configuration not stated), the melting point fell in the range of 103 to 104 °C.

In turn, `COc1cc(OCc2ccccn2)ccc1/C=C/c1cc(/C=C/c2ccc3nccnc3c2)[nH]n1` displayed a melting point of 205 to 213 °C.

As for `CCCCCCn1cnc(NC)c1C(=O)NCCCCCCOc1ccc(Cl)cc1`, the melting point lay within 55 to 56 °C.

`COc1ccc(CC(C)NCC(O)c2cccc(Br)c2)cc1` (configuration not stated) gave a melting point of 79 to 83 °C. The compound `CC1CC(=O)Nc2nc(OCCCCN3CCN(c4cccc(Cl)c4Cl)CC3)ccc21` (configuration not stated) yielded a melting point of 53 to 54 °C. Next, `CCCCOc1ccc(C(=O)Nc2ccc3cc(CN4CCCC4)cnc3c2C)c(F)c1`: 138 °C; `Cc1ccc(F)cc1C(=O)Nc1ccc(C(=O)N2CCCCc3sccc32)cn1`: 178 to 180 °C.

`O=C1CCc2c1cccc2-c1ccc(C(F)(F)F)cc1` gave a melting point of 75 to 78 °C.

In the case of `COc1cc(NC(=O)OC(C)(C)C)c(N)cc1-c1cc(F)ccc1F`, the melting point was found to be 144 °C. As to `COc1ccc(CC2(C)CN(C(c3ccccc3)c3ccccc3)CCN2C)cc1OC` (configuration not stated), the melting point was found to be 102 °C. Under `Nc1ccc(CCO)c(N)c1` stands 67 to 72 °C; under `Cn1ncc(/C=C/C(=O)Nc2ccc(CS(C)(=O)=O)cc2)c1-c1ccc(F)cc1`, 251 to 252 °C; under `COc1cc(C2C3=C(COC3=O)Nc3ccc4nn[nH]c4c32)cc(OC)c1OC` (configuration not stated), 324 to 325 °C. Compound `Cc1oc(-c2ccccc2)nc1CCC(=O)O` yielded a melting point of 124 to 125 °C. As to `Cc1nc(-c2ccc(-c3cccs3)cc2)c(-c2ccc(S(C)(=O)=O)cc2)o1`, the melting point was 183 to 185 °C. Next, `CCN(CC)C(=O)c1ccc(OCOC)cc1-c1ccccc1`: 63 to 64 °C. Next, `CCCC[C@H](NC(=O)[C@H](CC(C)C)NC(=O)c1cc(F)cc(F)c1)C(=O)CSCc1ccco1`: 125 to 126 °C. `CN1C(=O)CCC2(C)c3ccc(Sc4cccc5ccccc45)cc3CCC12` (single isomer, unassigned; (+)): the melting point is 161 to 162 °C.

Consider `COC(=O)N(C)c1cc(C(C)(C)C)no1`, for which the melting point lay within 70.5 to 71.5 °C.

`C[C@@H]1C[C@H](C)CN(S(=O)(=O)c2ccc(Cl)c(C(=O)NCC(=O)O)c2)C1` came in with a melting point of 190 to 192 °C. Take `c1ccc(Cn2cnc3cncnc32)cc1`: the melting point lay in the range of 99 to 100 °C. Under `COc1ccc(C(=O)CCCCCN2CCC(CNC(=O)c3cc(Cl)c(N)cc3OC)CC2)cc1Cl` stands 104 to 106 °C; under `CN(C(=O)Cc1ccccc1)c1nn(C)c(-c2ccc(F)cc2)c1-c1ccncc1`, 170 to 171 °C; under `O=c1c2ccccc2sc2cc(OCC(O)CCl)cc(O)c12` (configuration not stated), 151 °C. `CCCNCC1Cc2ccc(-c3ccc(=O)[nH]n3)cc2C1` (configuration not stated) showed a melting point of 144 to 146 °C. Regarding `Cc1oc(-c2ccccc2)nc1COc1ccc(CCCCc2nnn[nH]2)cc1`, the melting point was 116 to 117 °C.

Compound `CCC(=O)NC1=NN(c2ccccc2)C(C)C1` (configuration not stated) had a melting point of 96 to 96.5 °C. With `CC(C)(C)NC(=O)C1CC(C)(C)NC(C)(C)C1=NO` (configuration not stated), the melting point fell in the range of 136 to 139 °C. Under `O=[N+]([O-])CS(=O)(=O)c1ccc(CO)cc1` stands 73 to 75 °C; under `CC(=O)OCc1ccccc1C(=O)C(N)=O`, 86.5 to 88 °C; under `CN(C)c1ccccc1C(=O)N1CCC(=O)c2ccc(Cl)cc21`, 85.5 to 89 °C. Consider `COC(=O)C(NS(=O)(=O)c1ccc(-c2ccc(NC(=O)c3oc4cccc(C)c4c3C)cc2)cc1)C(C)C` (configuration not stated), for which the melting point fell in the range of 199 to 200 °C.

Compound `c1ccc2c(c1)CNc1ccccc1O2` yielded a melting point of 74 to 76 °C. In turn, `CN1CCC(OC2c3cccc(OCc4ccccc4)c3CCn3cc(-c4ccccc4)nc32)CC1` (configuration not stated) had a melting point of 68 °C. `CC1(C)OC(=O)C(C=Nc2cncc(Br)c2)C(=O)O1` had a melting point of 200 to 202 °C.

As for `Cc1ccc(S(=O)(=O)NC(=O)Nc2ccc(Cl)cc2)cc1`, the melting point lay in the range of 174 to 176 °C. `COc1cc2ccc(-c3cc(OCc4ccccc4)c(OC)cc3[N+](=O)[O-])cc2cc1OC` displayed a melting point of 151 to 153 °C.

`CCOC(=O)NNc1ccc(-c2ccc(Cl)cc2)nn1` had a melting point of 190 to 192 °C.

Turning to `Cc1ccc(S(=O)(=O)NCCCn2c(CCO)nc3c(N)nc4ccccc4c32)cc1`, the melting point is 231 to 232 °C.

Regarding `COc1cccc2c1OCC(C#N)=C2`, the melting point was 105 to 106 °C. As for `C#CCOc1cc(Oc2ccc(Cl)cc2Cl)ncn1`, the melting point turned out to be 107 °C. `C=CCO[C@H]1[C@@H](OCc2ccccc2)[C@@H](OCc2ccccc2)[C@H](OCc2ccccc2)[C@@H](OCc2ccccc2)[C@]1(O)CC=C` (racemic) showed a melting point of 97.5 °C. `COc1ccc2c(c1)CC(=O)NC2=O`: the melting point was in the range of 212 to 215 °C. The compound `COc1ccc(C2=C(C#N)c3ccc(OC)cc3CC2)cc1` had a melting point of 151 °C. With `CCOc1cccc2c1OC(C(F)(F)F)C(C(=O)O)=C2` (configuration not stated), the melting point lay within 159 to 161 °C.

Take `CCOC(=O)c1cn(C[C@@H]2CN(c3ccc(N4CCC(=CC#N)CC4)c(F)c3)C(=O)O2)nn1`: the melting point is 164 to 166 °C.

For the compound `NC(=O)C1CCN(Cc2cnc3cc(NC(=O)c4ccc(-c5ccc(Cl)cc5)cc4)ccc3c2)CC1`, the melting point was determined as 260 °C. For `CCOC(CNC(=N)NN1CCc2cc(Cl)ccc21)OCC`, the melting point was in the range of 163 to 165 °C. Compound `CC(C)Oc1cc(C(C)C)c2c(c1)S(=O)(=O)N(c1c(F)c(F)nc(F)c1F)C2=O` gave a melting point of 130 °C. The compound `CCCCCCCCCCCCCCCCOCCOCCOC(=O)NCc1ccccn1` displayed a melting point of 57 to 59 °C. Compound `O=C(O)c1ccc(OC(F)(F)F)c([N+](=O)[O-])c1` showed a melting point of 137 to 139 °C. For the compound `CCOC(=O)c1cc2cccc(NS(=O)(=O)c3ccccc3C(F)(F)F)c2[nH]1`, the melting point was 138 to 139 °C. Under `COc1ccc(CCNC(=O)C(=O)Nc2cccnc2)cc1OC1CCCC1` stands 167 °C; under `CNC(C)CCC1(C(N)=O)c2ccccc2-c2ccccc21` (configuration not stated), 178 to 180 °C. In turn, `COc1cc(N)c(Cl)cc1C(=O)NCC1CCN(CCCC(=O)c2ccc(O)cc2)CC1` came in with a melting point of 199 to 201 °C.

Regarding `CCc1nnc(-c2cccc(N(C)C)c2)n1-c1ccc(OC)cc1`, the melting point amounted to 170 °C. For `CCOc1ccc(CC(=O)O)cc1OCCCc1cn(-c2ccc(C(F)(F)F)cn2)nc1C(C)C`, the melting point is 116 to 117 °C. `O=c1c(Cc2ccccc2)c(-c2ncco2)n(-c2ccccc2)c2cc(Cl)ccc12` had a melting point of 219 to 220 °C. With `CCN(CC)CC#CC(=O)Nc1ccc2ncc(C#N)c(Nc3cccc(Br)c3)c2c1`, the melting point lay in the range of 133 to 135 °C. Regarding `CC(C)C[C@H](NC(=O)c1ccccc1)C(=O)N[C@@H](C(C)C)[C@@H](O)c1c(-c2ccccc2)c1=O`, the melting point lay within 150 to 154 °C.

Compound `Cn1cc(-c2cccc(C(F)(F)F)c2)c(=O)c(-c2ccc(Cl)cc2Cl)c1` registered a melting point of 139 to 142 °C. The compound `CCc1nc(-c2ncn(-c3cccc(O)c3)c2C)no1` registered a melting point of 226 to 227 °C.

As to `CC(C)C[C@H](NC(=O)OCc1ccccc1)C(=O)NC(C)(C)C(=O)CSCc1ccco1`, the melting point was 80 to 82 °C.

With `O=c1[nH]c2ccc(F)cc2c(=O)n1-c1ccc(Cl)cc1Cl`, the melting point was 313 to 314 °C. Next, `CCC1C(=O)Oc2c(Oc3ccccc3C)cccc21` (configuration not stated): 44 to 45 °C; `Cc1cc2nc3c(nc2cc1[N+](=O)[O-])SC(C#N)=C(C#N)S3`: 155 to 157 °C; `CC(C)SC1CCC(=O)N1` (configuration not stated): 77 to 79 °C. The compound `Cc1cccc2c1N(CCN(C(C)C)C(C)C)C(=O)C2=O` returned a melting point of 92 to 93 °C. Regarding `CCCCC(c1cc(F)ccc1F)S(=O)c1ccc(Cl)cc1` (configuration not stated), the melting point was in the range of 108 to 109 °C. In turn, `CC(Sc1ccc(OC(C)(C)C(=O)O)cc1)c1cccc2c1cnn2-c1ccc(C(F)(F)F)cc1` (racemic) had a melting point of 85 to 90 °C.

For the compound `COc1ccc(C(=O)Nc2ccccc2)cc1Nc1cccc(NC(C)=O)c1`, the melting point was 202 to 203 °C. In turn, `CCCc1c(OCc2ccccc2)ccc2c(C)c(C(=O)c3ccc(OC)cc3)oc12` returned a melting point of 105 to 106 °C.

In the case of `COc1cnc(C(O)Cc2c(Cl)cncc2Cl)cc1OC1CCCC1` (configuration not stated), the melting point fell in the range of 110 to 112 °C. In turn, `OC1(NC2=NCCS2)C(=Cc2ccccc2)CSCC1=Cc1ccccc1` (configuration not stated) showed a melting point of 171 to 172 °C. The compound `O=C(c1ccccc1)c1nc(-c2ccncc2)cs1` displayed a melting point of 135 to 136 °C. For `CC(C)NC1=NS(=O)(=O)c2ccc(C3CCCCC3)cc2N1`, the melting point was 131 to 133 °C. In turn, `CCCCCCC(=N)NC(=S)Nc1ccccc1Cl` showed a melting point of 75 to 77 °C. For the compound `CCOC(Oc1cc(Cl)cc(Cl)c1)C(=O)NC(C)(C)C` (configuration not stated), the melting point was in the range of 69 to 71 °C. `CC(C)Sc1c(C(N)=O)sc2cccc(Cl)c12` came in with a melting point of 182 to 184 °C. The compound `COc1cc2cc(C3CCCCC3)sc2c(Cl)c1Cl` yielded a melting point of 60 °C.

With `OCC1OC(n2cnc3c(NNC4COc5c(Cl)cccc5C4)ncnc32)C(O)C1O` (configuration not stated), the melting point is 137 to 139 °C.

On to `CN1CCN(CCOc2ccc([C@H]3c4ccc(OCc5ccccc5)cc4OC[C@H]3c3ccccc3)cc2)CC1` (racemic), for which the melting point is 103 to 107 °C. As for `COC1CC2CC(OC(=O)c3ccccc3)CCC2(C)C2CCC3(C)C(=C12)C(O)CC3C(C)CCCC(C)C` (configuration not stated), the melting point lay within 182 to 183 °C. Compound `CCCOc1ccc(CN2CCC(C(N)=O)CC2)cc1` had a melting point of 142 to 146 °C. Compound `C[C@@H](S[C@H]1CO[C@H](/C=C/c2ccc(C(F)(F)F)cc2)OC1)[C@](O)(Cn1cncn1)c1ccc(F)cc1F` showed a melting point of 73 to 75 °C.

The values are drawn from a melting point compilation (Tetko et al.; mined from patent text by program, amines drawn as free bases though some values may be those of a salt).
